Reference: PubChem BioAssay (NCI)
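Following 48 hours of exposure in 96-well plates, responses at five concentrations were used to interpolate endpoints linearly. At the GI50, growth is halved. At the TGI there is no net growth.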

What was measured:
Experiment in all cases: NCI anticancer screen, dose series, 48 h
HT29 colon = test system: HT29 colon
OVCAR-3 ovarian = test system: OVCAR-3 ovarian
LXFL 529 NSCLC = test system: LXFL 529 NSCLC
HOP-18 NSCLC = test system: HOP-18 NSCLC
SF-268 CNS = test system: SF-268 CNS
XF 498 CNS = test system: XF 498 CNS
NCI-H522 lung = test system: NCI-H522 lung
SF-295 CNS = test system: SF-295 CNS
NCI-H23 lung = test system: NCI-H23 lung
OVCAR-8 ovarian = test system: OVCAR-8 ovarian
NCI-H226 lung = test system: NCI-H226 lung
OVCAR-4 ovarian = test system: OVCAR-4 ovarian
SN12C renal = test system: SN12C renal
RPMI-8226 leukemia = test system: RPMI-8226 leukemia
SK-MEL-28 melanoma = test system: SK-MEL-28 melanoma
SR leukemia = test system: SR leukemia
SNB-19 CNS = test system: SNB-19 CNS
TK-10 renal = test system: TK-10 renal
SF-539 CNS = test system: SF-539 CNS
HCC-2998 colon = test system: HCC-2998 colon
786-0 renal = test system: 786-0 renal
A549 NSCLC = test system: A549 NSCLC
DMS 273 small cell lung = test system: DMS 273 small cell lung
SK-OV-3 ovarian = test system: SK-OV-3 ovarian
HL-60(TB) leukemia = test system: HL-60(TB) leukemia
SK-MEL-5 melanoma = test system: SK-MEL-5 melanoma
K-562 leukemia = test system: K-562 leukemia
A498 renal = test system: A498 renal
EKVX NSCLC = test system: EKVX NSCLC
ACHN renal = test system: ACHN renal
KM20L2 colon = test system: KM20L2 colon
HCT-116 colon = test system: HCT-116 colon
MOLT-4 leukemia = test system: MOLT-4 leukemia
U251 CNS = test system: U251 CNS
SW-620 colon = test system: SW-620 colon
HCT-15 colon = test system: HCT-15 colon
COLO 205 colon = test system: COLO 205 colon
SNB-75 CNS = test system: SNB-75 CNS
CCRF-CEM leukemia = test system: CCRF-CEM leukemia
NCI-H460 lung = test system: NCI-H460 lung
M19-MEL melanoma = test system: M19-MEL melanoma
M14 melanoma = test system: M14 melanoma
IGROV1 ovarian = test system: IGROV1 ovarian
SK-MEL-2 melanoma = test system: SK-MEL-2 melanoma
DMS 114 small cell lung = test system: DMS 114 small cell lung
HOP-92 NSCLC = test system: HOP-92 NSCLC
RXF 393 renal = test system: RXF 393 renal
UO-31 renal = test system: UO-31 renal
CAKI-1 renal = test system: CAKI-1 renal
KM12 colon = test system: KM12 colon
MALME-3M melanoma = test system: MALME-3M melanoma
DLD-1 colon = test system: DLD-1 colon
NCI/ADR-RES ovarian = test system: NCI/ADR-RES ovarian
SNB-78 CNS = test system: SNB-78 CNS
T-47D breast = test system: T-47D breast
HOP-62 NSCLC = test system: HOP-62 NSCLC
UACC-62 melanoma = test system: UACC-62 melanoma
OVCAR-5 ovarian = test system: OVCAR-5 ovarian
PC-3 prostate = test system: PC-3 prostate
DU-145 prostate = test system: DU-145 prostate
MDA-MB-435 = test system: MDA-MB-435
LOX IMVI melanoma = test system: LOX IMVI melanoma

OC(CCl)CN1CC[N+]2(CC1)CC[N+]1(CCN(CC(O)CCl)CC1)CC2 (stereo not given)
TGI (HT29 colon): > 50000 nM | TGI (OVCAR-3 ovarian): > 50000 nM | TGI (LXFL 529 NSCLC): > 50000 nM | TGI (HOP-18 NSCLC): > 50 µM | TGI (SF-268 CNS): > 50 µM | TGI (XF 498 CNS): > 50 µM | TGI (NCI-H522 lung): > 50 µM | TGI (SF-295 CNS): > 50 µM | TGI (NCI-H23 lung): > 50 µM | TGI (OVCAR-8 ovarian): > 50 µM | TGI (NCI-H226 lung): > 50 µM | TGI (OVCAR-4 ovarian): > 50 µM | TGI (SN12C renal): > 50 µM | TGI (RPMI-8226 leukemia): > 50 µM | TGI (SK-MEL-28 melanoma): > 50000 nM | TGI (SR leukemia): > 50 µM | TGI (SNB-19 CNS): > 50 µM | TGI (TK-10 renal): > 50 µM | TGI (SF-539 CNS): > 50 µM | TGI (HCC-2998 colon): > 50000 nM | TGI (786-0 renal): > 50000 nM | TGI (A549 NSCLC): > 50 µM | TGI (DMS 273 small cell lung): > 50000 nM | TGI (SK-OV-3 ovarian): > 50 µM | TGI (HL-60(TB) leukemia): > 50 µM | TGI (SK-MEL-5 melanoma): > 50000 nM | TGI (K-562 leukemia): > 50000 nM | TGI (A498 renal): > 50 µM | TGI (EKVX NSCLC): > 50 µM | TGI (ACHN renal): > 50 µM | TGI (KM20L2 colon): > 50000 nM | TGI (HCT-116 colon): > 50 µM | TGI (MOLT-4 leukemia): > 50000 nM | TGI (U251 CNS): > 50000 nM | TGI (SW-620 colon): > 50000 nM | TGI (HCT-15 colon): > 50000 nM | TGI (COLO 205 colon): > 50000 nM | TGI (SNB-75 CNS): > 50000 nM | TGI (CCRF-CEM leukemia): > 50000 nM | TGI (NCI-H460 lung): > 50000 nM | TGI (M19-MEL melanoma): > 50000 nM | TGI (M14 melanoma): > 50000 nM | TGI (IGROV1 ovarian): > 50 µM | TGI (SK-MEL-2 melanoma): > 50 µM | TGI (DMS 114 small cell lung): > 50 µM | TGI (HOP-92 NSCLC): > 50000 nM | TGI (RXF 393 renal): > 50000 nM | TGI (UO-31 renal): > 50000 nM | TGI (CAKI-1 renal): > 50 µM | TGI (KM12 colon): > 50000 nM | TGI (MALME-3M melanoma): > 50000 nM

CC(C)(C)CC(C)(C)NCC(O)COc1ccc(C(C)(C)c2ccc(OCC(O)CNC(C)(C)CC(C)(C)C)cc2)cc1 (stereo not given)
TGI (HT29 colon): 1420 nM | TGI (DLD-1 colon): 2060 nM | TGI (OVCAR-3 ovarian): 2470 nM | TGI (LXFL 529 NSCLC): 1300 nM | TGI (SF-268 CNS): 3.06 µM | TGI (XF 498 CNS): 3.02 µM | TGI (NCI-H522 lung): 3.02 µM | TGI (SF-295 CNS): 3.21 µM | TGI (NCI-H23 lung): 3.14 µM | TGI (OVCAR-8 ovarian): 3.25 µM | TGI (NCI-H226 lung): 3.51 µM | TGI (OVCAR-4 ovarian): 3.23 µM | TGI (SN12C renal): 3.04 µM | GI50 (NCI/ADR-RES ovarian): 1410 nM | TGI (NCI/ADR-RES ovarian): 2840 nM | TGI (SNB-78 CNS): 3.63 µM | TGI (SK-MEL-28 melanoma): 1850 nM | TGI (SNB-19 CNS): 3.01 µM | GI50 (TK-10 renal): 1750 nM | TGI (TK-10 renal): 3.32 µM | TGI (SF-539 CNS): 3.33 µM | TGI (HCC-2998 colon): 1210 nM | TGI (786-0 renal): 2770 nM | TGI (A549 NSCLC): 3.02 µM | GI50 (T-47D breast): 1660 nM | TGI (T-47D breast): 3.48 µM | TGI (DMS 273 small cell lung): 2280 nM | TGI (SK-OV-3 ovarian): 3.24 µM | TGI (HOP-62 NSCLC): 3.19 µM | TGI (UACC-62 melanoma): 3.31 µM | TGI (SK-MEL-5 melanoma): 2670 nM | TGI (OVCAR-5 ovarian): 3.32 µM | TGI (K-562 leukemia): 1160 nM | TGI (A498 renal): 3.03 µM | GI50 (PC-3 prostate): 1880 nM | TGI (PC-3 prostate): 3.38 µM | TGI (EKVX NSCLC): 3.08 µM | TGI (ACHN renal): 3.17 µM | TGI (KM20L2 colon): 2880 nM | GI50 (DU-145 prostate): 1390 nM | TGI (DU-145 prostate): 2750 nM | TGI (HCT-116 colon): 5.38 µM | TGI (MOLT-4 leukemia): 1260 nM | TGI (U251 CNS): 2200 nM | GI50 (MDA-MB-435): 513 nM | TGI (MDA-MB-435): 1730 nM | TGI (SW-620 colon): 463 nM | TGI (HCT-15 colon): 2690 nM | TGI (COLO 205 colon): 1470 nM | TGI (SNB-75 CNS): 2790 nM | TGI (CCRF-CEM leukemia): 1030 nM | TGI (NCI-H460 lung): 782 nM | TGI (M19-MEL melanoma): 2880 nM | TGI (M14 melanoma): 1490 nM | TGI (IGROV1 ovarian): 3.23 µM | TGI (SK-MEL-2 melanoma): 3.28 µM | TGI (DMS 114 small cell lung): 3.21 µM | TGI (HOP-92 NSCLC): 3000 nM | TGI (RXF 393 renal): 2750 nM | TGI (UO-31 renal): 2980 nM | TGI (LOX IMVI melanoma): 1350 nM | TGI (CAKI-1 renal): 3.13 µM | TGI (KM12 colon): 2310 nM | TGI (MALME-3M melanoma): 2960 nM
